Series [1] has as its system SNU398 cells. The series is described as follows: Cell viability assay in SNU398 cells. In kind it is cell-based. To be noted: ratio of EC50, SNU398. The procedure:
FIGS. 3A-3E. Key residues involved in SALL4 (1-12)-RBBp4 binding. […] The difference in the binding free energy (ΔΔGbind) of the alanine mutants (ΔGmutant, Ala7 was mutated to glycine) and wild type (ΔGwild type) was calculated (ΔΔGbind=ΔGmutant−ΔGwild type). ΔΔGbind was tabulated (left) and plotted in a bar chart (right). […] Mutated residues are highlighted in red. The IC50 of each peptide, including WT, was determined by Fluorescence Polarization (FP). Different concentrations of each peptide were titrated into a mixture of 0.04 μM RBBp4 and 0.01 μM of C-labelled FITC-SALL4 WT peptide. Polarization was measured in mP. […] Pep-1 carrier was added to the peptide to facilitate cellular penetration of the peptides.
FIGS. 5A-5B. Development of a potent therapeutic peptide FFW.
SNU398 was grown in RPMI supplemented with 10% fetal bovine serum (FBS) at 37° C. in a humidified atmosphere of 5% CO2. 3000 cells were seeded in each well of a 96 well plate with 100 μL of medium. Before peptide treatment, cells were washed twice with PBS and treated with different concentrations of peptide in OPTIMEM (LifeTech). Media was added after 4 hrs of incubation at 37° C., and cells incubated for another 68 hrs. Tetrazolium (CellTiter96 AQueous One Solution Cell Proliferation Assay, Promega) was added after 72 hrs incubation with the peptides, and the plate was read at a plate reader at 490 nm after 1 hr of incubation in the dark at 37° C.

Series [2] in a line: in vitro. To be noted: human, plasma, pH 7.4.
Protocol: PEN-FFW was incubated with human plasma (pH7.4) at 37° C. over a 24 hour period (5 timepoints). Incubations were performed at a concentration of 1 μM (final DMSO concentration 2.5%). Reactions were terminated at 0, 5, 10, 15, 30 min, or 0, 1, 2, 4 and 24 hour, by addition of 2 volumes of methanol containing 1% Formic acid. The samples were centrifuged (2500 rpm, 45 min, 4° C.) and the supernatants diluted with 2 volumes of 0.2% Formic acid (aq) (containing Metoprolol (internal standard)). […] The percentage of parent peptide remaining at each time point relative to the 0 min sample was calculated from LC-MS/MS peak area ratios (compound peak area/internal standard peak area).
The test system of series [3] is SNU398. As to the kind of experiment: RNA-seq transcriptome analysis of treated SNU398. The format is cell-based. To be noted: SNU398 treated 8 hrs. How it is done:
SNU398 were treated PEN, PEN-MUT, PEN-WT & PEN-FFW for 8 hrs and paired-end RNA-seq was performed for the treated samples. RNA-seq reads of each sample were mapped to hg19 using the STAR aligner. Normalization between the samples was based on the proportionality of the numbers of the mapped reads. The expression fold change of a transcript was obtained using linear regression of the reads between the two samples cross all exons. Differential expression between two samples was selected by using the fold change cut off of 2. Hierarchical clustering was performed based on average linkage to generate the clustering tree as well as heat maps. For identification of enriched gene sets or pathways, Gene Set Enrichment Analysis (GSEA) was performed based on the normalized data and using the GSEA tool (broad.mit.edu/gsea/) with msigdb.v5.0.

Ends that are not written are not given here.

In the case of RQIKIWFQNRRMKWKKRRKFAKFQWI [PEN-FFW], the “improvement as compared with PEN-WT” value in series [1] was determined as 4 fold. Moreover, in series [2], the amount remaining (usually the share of the starting amount still present when the sample was taken) at 0.5 h, 1 μM is more than 90%; the amount remaining at 4 h, 1 μM was more than 50%; the fraction remaining at 24 h, 1 μM is approximately 20%. The “share of DEGs upregulated” value in series [3] is “more than 99%”.

The record behind these values is patent US10793601B2, “Therapeutic spalt-like transcription factor 4 (SALL4) peptide” (National University of Singapore, priority 2016, dated 2020).
